Measured values published in patent publication US8569336B2, “Compounds for the treatment of inflammatory disorders” (priority 2008, dated 2013).

The molecules below were run against T1, purified catalytic domain of recombinant human TACE (rhTACEc) (Homo sapiens, UniProt P78536, N452Q/S266A) (assay: TACE kinetic assay: cleavage of internally quenched peptide substrate TNF-FRET 2 (Ki)). Conditions: TNF-FRET 2 substrate, read-out: Ki.
T1 construct: 6xHis (C); made in house; host or cells: baculovirus/Hi5 insect cells
T1 sequence (P78536 215-477 S266A/N452Q): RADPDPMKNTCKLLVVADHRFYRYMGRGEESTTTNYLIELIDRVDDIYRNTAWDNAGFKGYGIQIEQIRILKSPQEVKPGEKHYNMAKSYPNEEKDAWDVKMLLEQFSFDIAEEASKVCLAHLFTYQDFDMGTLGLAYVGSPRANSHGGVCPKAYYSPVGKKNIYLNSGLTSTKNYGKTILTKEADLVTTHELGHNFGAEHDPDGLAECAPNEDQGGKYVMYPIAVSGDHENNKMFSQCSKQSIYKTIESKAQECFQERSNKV
Type: biochemical

Structure (SMILES)	Ki
COc1ccc2c(c1F)C(=O)N(C[C@@]1(c3cc4nc(N(CCN(C)C)c5cn[nH]c5)ccc4o3)NC(=O)NC1=O)C2 [Compound 1714]	0.85 nM
COc1ccc2c(c1F)C(=O)N(C[C@@]1(c3cc4nc(N5CC[C@@H](O)C5)ccc4o3)NC(=O)NC1=O)C2 [Compound 1521]	0.3 nM
COc1ccc2c(c1)C(=O)N(C[C@@]1(c3cc4nc(NC5CCNCC5)ccc4o3)NC(=O)NC1=O)C2 [Compound 1723]	2.66 nM
COc1ccc2c(c1F)C(=O)N(C[C@@]1(c3cc4nc(-c5cccc(C#N)c5)ccc4o3)NC(=O)NC1=O)C2 [Compound 1504]	0.4 nM
COC(=O)c1cc2cc([C@]3(CN4Cc5ccc(OC)cc5C4=O)NC(=O)NC3=O)oc2cc1F [Compound 1271]	0.45 nM
COc1ccc2c(c1)C(=O)N(C[C@@]1(c3cc4c(o3)CCN(S(C)(=O)=O)C4)NC(=O)NC1=O)C2 [Compound 316]	0.82 nM
COc1ccc2c(c1F)C(=O)N(C[C@]1(C3=CC(c4ccccc4)N(C)O3)NC(=O)NC1=O)C2 (some centres unmarked) [Compound 1525]	3.2 nM
COc1ccc2c(c1F)C(=O)N(C[C@@]1(c3cc4nc(N5CCN(C)CC5)c(F)cc4o3)NC(=O)NC1=O)C2 [Compound 1710]	1.08 nM
COc1ccc2c(c1F)C(=O)N(C[C@@]1(c3cc4nc(C)c(Br)cc4o3)NC(=O)NC1=O)C2 [Compound 1917]	0.5 nM
COc1ccc2c(c1F)C(=O)N(C[C@@]1(c3cc4ccc(NC(C)=O)nc4o3)NC(=O)NC1=O)C2 [Compound 505]	0.558 nM
COc1ccc2c(c1F)C(=O)N(C[C@@]1(c3cc4cc(-c5c(C)nn(C)c5C)c(F)cc4o3)NC(=O)NC1=O)C2 [Compound 1181]	0.41 nM
COc1ccc2c(c1)C(=O)N(C[C@@]1(c3cc4nc(-c5ccc(OC)nc5)ccc4o3)NC(=O)NC1=O)C2 [Compound 1518]	0.9 nM

The next lines start with the values.

Ki	Structure (SMILES)
0.75 nM	COc1ccc2c(c1)C(=O)N(C[C@@]1(c3oc4cccnc4c3-c3ncccc3O)NC(=O)NC1=O)C2 [Compound 1940]
0.604 nM	COc1ccc2c(c1F)C(=O)N(C[C@@]1(c3cc4cnc(Cl)cc4o3)NC(=O)NC1=O)C2 [Compound 2217]
0.721 nM	COc1ccc2c(c1)C(=O)N(C[C@@]1(c3cc4cnc(-c5c(C)noc5C)cc4o3)NC(=O)NC1=O)C2 [Compound 2288]
0.564 nM	COc1ccc2c(c1)C(=O)N(C[C@@]1(c3cc4cc(N5C(=O)CNC5=O)ccc4o3)NC(=O)NC1=O)C2 [Compound 2225]
0.14 nM	COc1ccc2c(c1)C(=O)N(C[C@@]1(c3cc4nc(-c5c(C)n[nH]c5C)ccc4o3)NC(=O)NC1=O)C2 [Compound 2101]
0.36 nM	COc1ccc2c(c1)C(=O)N(C[C@@]1(c3cc4cc(C)c(S(N)(=O)=O)cc4o3)NC(=O)NC1=O)C2 [Compound 2479]
2.08 nM	COc1ccc2c(c1)C(=O)N(C[C@@]1(c3ccc(-c4ccc(C5(CN)NC(=O)NC5=O)cc4)cc3)NC(=O)NC1=O)C2 (some centres unmarked) [Compound 2175]
0.62 nM	COc1ccc2c(c1)C(=O)N(C[C@@]1(c3cc4nc(Nc5nccs5)ccc4o3)NC(=O)NC1=O)C2 [Compound 2113]
0.659 nM	COc1ccc2c(c1)C(=O)N(C[C@@]1(c3ccc(-c4ccc(C5(C)NC(=O)NC5=O)cc4)cc3)NC(=O)NC1=O)C2 (some centres unmarked) [Compound 2205]
1.14 nM	COc1ccc2c(c1)C(=O)N(C[C@@]1(c3cc4ccc(C(=O)NCC5CCN(C)CC5)cc4o3)NC(=O)NC1=O)C2 [Compound 2411]
0.54 nM	COc1ccc2c(c1)C(=O)N(C[C@@]1(c3cc4ncc(-c5ncc[nH]5)cc4o3)NC(=O)NC1=O)C2 [Compound 1943]
0.976 nM	COc1ccc2c(c1)C(=O)N(C[C@@]1(c3cc4nc(N5CCN(c6ccncc6)CC5)ccc4o3)NC(=O)NC1=O)C2 [Compound 2143]
0.13 nM	COC(=O)c1ccc2oc([C@]3(CN4Cc5ccc(OC)cc5C4=O)NC(=O)NC3=O)cc2n1 [Compound 2463]
0.115 nM	COc1ccc2c(c1)C(=O)N(C[C@@]1(c3cc4nc(C(=O)NC5CC5)ccc4o3)NC(=O)NC1=O)C2 [Compound 2464]
2.16 nM	CCN1CCN(c2cc3oc([C@]4(CN5Cc6ccc(OC)c(F)c6C5=O)NC(=O)NC4=O)cc3nc2C)CC1 [Compound 1920]
0.69 nM	CCNC(=O)OCc1cnc2cc([C@]3(CN4Cc5ccc(OC)cc5C4=O)NC(=O)NC3=O)oc2c1 [Compound 1944]

The molecules below were run on TNF-α production from human whole blood (assay: Inhibition of TNF-α production from human whole blood (hWBA), LPS stimulated, ELISA). Conditions: Homo sapiens, 3.5 h, human whole blood diluted 1:1, LPS stimulated, 3.5 h, TNF-α by ELISA; read-out: hWBA (IC50).
Type: cell-based

IC50	Structure (SMILES)
859 nM	COc1ccc2c(c1F)C(=O)N(C[C@@]1(c3cc4cnc(Cl)cc4o3)NC(=O)NC1=O)C2 [Compound 2217]
677 nM	COc1ccc2c(c1)C(=O)N(C[C@@]1(c3cc4cc(N5C(=O)CNC5=O)ccc4o3)NC(=O)NC1=O)C2 [Compound 2225]
203 nM	COc1ccc2c(c1)C(=O)N(C[C@@]1(c3cc4nc(-c5c(C)n[nH]c5C)ccc4o3)NC(=O)NC1=O)C2 [Compound 2101]
1760 nM	COc1ccc2c(c1)C(=O)N(C[C@@]1(c3ccc(-c4ccc(C5(CN)NC(=O)NC5=O)cc4)cc3)NC(=O)NC1=O)C2 (some centres unmarked) [Compound 2175]
1400 nM	COc1ccc2c(c1)C(=O)N(C[C@@]1(c3cc4nc(Nc5nccs5)ccc4o3)NC(=O)NC1=O)C2 [Compound 2113]
≥ 1000 nM	COc1ccc2c(c1)C(=O)N(C[C@@]1(c3ccc(-c4ccc(C5(C)NC(=O)NC5=O)cc4)cc3)NC(=O)NC1=O)C2 (some centres unmarked) [Compound 2205]
1050 nM	COC(=O)c1cc2cc([C@]3(CN4Cc5ccc(OC)cc5C4=O)NC(=O)NC3=O)oc2cc1F [Compound 1271]
551 nM	COc1ccc2c(c1)C(=O)N(C[C@@]1(c3cc4nc(N5CCN(c6ccncc6)CC5)ccc4o3)NC(=O)NC1=O)C2 [Compound 2143]

Same assay, conditions: Homo sapiens, LPS-stimulated human whole blood, TNF-α by ELISA; read-out: hWBA (IC50)

Structure (SMILES)	IC50
COc1ccc2c(c1F)C(=O)N(C[C@@]1(c3cc4nc(N(CCN(C)C)c5cn[nH]c5)ccc4o3)NC(=O)NC1=O)C2 [Compound 1714]	271 nM
COc1ccc2c(c1F)C(=O)N(C[C@@]1(c3cc4nc(N5CC[C@@H](O)C5)ccc4o3)NC(=O)NC1=O)C2 [Compound 1521]	169 nM
COc1ccc2c(c1)C(=O)N(C[C@@]1(c3cc4nc(NC5CCNCC5)ccc4o3)NC(=O)NC1=O)C2 [Compound 1723]	560 nM
COc1ccc2c(c1F)C(=O)N(C[C@@]1(c3cc4nc(-c5cccc(C#N)c5)ccc4o3)NC(=O)NC1=O)C2 [Compound 1504]	579 nM
COc1ccc2c(c1)C(=O)N(C[C@@]1(c3cc4c(o3)CCN(S(C)(=O)=O)C4)NC(=O)NC1=O)C2 [Compound 316]	497 nM
COc1ccc2c(c1F)C(=O)N(C[C@]1(C3=CC(c4ccccc4)N(C)O3)NC(=O)NC1=O)C2 (some centres unmarked) [Compound 1525]	≥ 100000 nM
COc1ccc2c(c1F)C(=O)N(C[C@@]1(c3cc4nc(N5CCN(C)CC5)c(F)cc4o3)NC(=O)NC1=O)C2 [Compound 1710]	218 nM
COc1ccc2c(c1F)C(=O)N(C[C@@]1(c3cc4nc(C)c(Br)cc4o3)NC(=O)NC1=O)C2 [Compound 1917]	1340 nM
COc1ccc2c(c1F)C(=O)N(C[C@@]1(c3cc4ccc(NC(C)=O)nc4o3)NC(=O)NC1=O)C2 [Compound 505]	252 nM
COc1ccc2c(c1F)C(=O)N(C[C@@]1(c3cc4cc(-c5c(C)nn(C)c5C)c(F)cc4o3)NC(=O)NC1=O)C2 [Compound 1181]	354 nM
COc1ccc2c(c1)C(=O)N(C[C@@]1(c3cc4nc(-c5ccc(OC)nc5)ccc4o3)NC(=O)NC1=O)C2 [Compound 1518]	1510 nM

Second part, the molecule after the results:

IC50	Structure (SMILES)
659 nM	COc1ccc2c(c1)C(=O)N(C[C@@]1(c3oc4cccnc4c3-c3ncccc3O)NC(=O)NC1=O)C2 [Compound 1940]
742 nM	COc1ccc2c(c1)C(=O)N(C[C@@]1(c3cc4ncc(-c5ncc[nH]5)cc4o3)NC(=O)NC1=O)C2 [Compound 1943]
674 nM	CCN1CCN(c2cc3oc([C@]4(CN5Cc6ccc(OC)c(F)c6C5=O)NC(=O)NC4=O)cc3nc2C)CC1 [Compound 1920]
2250 nM	CCNC(=O)OCc1cnc2cc([C@]3(CN4Cc5ccc(OC)cc5C4=O)NC(=O)NC3=O)oc2c1 [Compound 1944]

Same assay, conditions: Homo sapiens, human whole blood diluted 1:1, LPS stimulated, TNF-α by ELISA; read-out: hWBA (IC50)

IC50	Structure (SMILES)
696 nM	COc1ccc2c(c1)C(=O)N(C[C@@]1(c3cc4cnc(-c5c(C)noc5C)cc4o3)NC(=O)NC1=O)C2 [Compound 2288]
2080 nM	COc1ccc2c(c1)C(=O)N(C[C@@]1(c3cc4cc(C)c(S(N)(=O)=O)cc4o3)NC(=O)NC1=O)C2 [Compound 2479]
348 nM	COc1ccc2c(c1)C(=O)N(C[C@@]1(c3cc4ccc(C(=O)NCC5CCN(C)CC5)cc4o3)NC(=O)NC1=O)C2 [Compound 2411]
339 nM	COC(=O)c1ccc2oc([C@]3(CN4Cc5ccc(OC)cc5C4=O)NC(=O)NC3=O)cc2n1 [Compound 2463]
367 nM	COc1ccc2c(c1)C(=O)N(C[C@@]1(c3cc4nc(C(=O)NC5CC5)ccc4o3)NC(=O)NC1=O)C2 [Compound 2464]
